# Assay results published in patent publication US4978783A, “2,6-dimethoxyhydroquinone-3-mercaptopropionic acid, 2,6-dimethoxyhydroquinone-3-mercaptoacetic acid, and antitumor use thereof” (National Science Council, priority 1990, dated 1990).
# Entries after “also recorded” stand apart in the source; their conditions may differ.
# How the values were obtained:
# human tumor cell lines = experiment: Cytotoxicity against four/several human tumor cell lines, (MTT method); assay type: cell-based; details: for cytotoxicity at 100 µg/mL: 96 h, each alone, DMQ-MP 1 μg/ml or D-isoascorbic acid 100 μg/ml, read-out: cytotoxicity index (CI) value, summary; for cytotoxicity compared with DMQ, in words: drug without activator, versus DMQ; for cytotoxicity in combination with L-ascorbic acid or D-isoascorbic acid, in words: several human cancer cell lines, in vitro
# From the text: (§1) A convenient cytotoxicity assay adopted in this example for the evaluation of antitumor activity is the MTT method disclosed in an article by Twentyman and Luscombe, entitled "A study of some variables in a tetrazolium dye (MTT) based assay for cell growth and chemosensitivity" Br. J. Cancer. 56, 279-285 (1987).
# (§2) Four different human cancer cell lines were used in this assay. These were KB (oral epidermoid carcinoma); Colo-205 (colon adenocarcinoma); HeLa (cervical carcinoma); and HEP-2 (larynx epidermoid carcinoma).
# (§3) Cells were taken from exponential phase cultures and were allowed to grow in a plate containing 96 wells using RPMI-1640 medium supplemented with 5% fetal bovine serum, 1 mM glutamine and antibiotics (penicillin and streptomycin) at 37° C. in a CO2 incubator. Cell suspensions were trypsinized and disaggregated. 3×10^3 cells were inoculated into each well in 0.18 ml of medium, to which 0.02 ml of drug was added. After 4 days of culture, 0.1 mg of 3-(4,5-dimethylthiazol-2-yl)-2,5-diphenyltetrazolium bromide (MTT) was added to each well and the plate incubated for 4 hours. The medium was then removed, 0.2 ml DMSO was added to each well and the plate agitated for 10 min. The optical density of each well was measured at a 545 nm test wavelength and a 690 nm reference wavelength using a Titertek Multiskan plate reader. Absorbance levers from drug tested cells were corrected against untreated control values.
# [1] = tested on: KB (oral epidermoid carcinoma) cells; experiment: Cytotoxicity against KB cells by the MTT method; assay type: cell-based, human; details: 5760 min
# From the text: as §1, §2, §3
# (§4) *Cytotoxicity index (CI) = 100% × [1(O.D. of treated cells / O.D. o
# [2] = tested on: HEP-2 (larynx epidermoid carcinoma) cells; experiment: Cytotoxicity against HEP-2 cells by the MTT method; assay type: cell-based, human; details: 5760 min
# From the text: as §1, §2, §3, §4
# [3] = tested on: HeLa (cervical carcinoma) cells; experiment: Cytotoxicity against HeLa cells by the MTT method; assay type: cell-based, human; details: 5760 min
# From the text: as §1, §2, §3, §4
# [4] = tested on: Colo-205 (colon adenocarcinoma) cells; experiment: Cytotoxicity assay against Colo-205 cells by the MTT method; assay type: cell-based, human; details: for CI: 5760 min; for Cytotoxicity index (CI): Table 1, 4 days; for CI value compared with DMQ, in words: versus DMQ
# Description: Four different human cancer cell lines were used in this assay.
# as §3, with “Cell” for “Cells were taken from exponential phase cultures and were allowed to grow in a plate containing 96 wells using RPMI-1640 medium supplemented with 5% fetal bovine serum, 1 mM glutamine and antibiotics (penicillin and streptomycin) at 37° C. in a CO2 incubator. Cell”
# as §4
# [5] = background statement; cited from earlier work
# normal cells = details: background statement; cited from earlier work
# [6] = background statement; cited from earlier work; remark: listed apart in the source
# Solubility in H2O = assay type: physicochemical; details: for solubility: water; for solubility / solubility relative to DMQ (times higher): H2O, 27° C.; for solubility relative to DMQ (times higher): versus DMQ; for water-solubility, in words: compared with DMQ
# Ehrlich ascites = details: DMQ in combination with L-ascorbic acid; cited from earlier work
# [7] = Hydrophobicity (statement); assay type: physicochemical; details: to gain passage into the cell via the cell membrane
# [8] = cited from earlier work
# [9] = Table 2, D-isoascorbic acid 100 μg/ml alone
# [10] = Table 3, DMQ-MA 1 μg/ml + L-ascorbate 100 μg/ml
# [11] = Table 3, DMQ-MA 1 μg/ml, no activator
# [12] = Table 2, DMQ-MP 1 μg/ml + D-isoascorbic acid 100 μg/ml
# [13] = Table 2, DMQ-MP 1 μg/ml, no activator
# [14] = Table 3, L-ascorbate 100 μg/ml alone
compound,measurement,setting,value
"O=C1O[C@H]([C@H](O)CO)C(O)=C1O [D-isoascorbic acid, reference compound]",cytotoxicity at 100 µg/mL,human tumor cell lines; four human tumor cell lines,< 25%
same,CI,[1]; [9],11%
same,CI,[2]; [9],13%
same,CI,[3]; [9],5%
same,CI,[4]; [9],24%
"COC1=CC(=O)C=C(OC)C1=O [DMQ, 2,6-dimethoxy-p-benzoquinone]","precipitation from the blood, in words",[5],precipitate from the blood easily
same,"cytotoxicity to normal cells, in words",normal cells,certain degree of cytotoxicity; also recorded: destruction of normal cells
same,"solubility in water, in words",[6],poor solubility in water
same,solubility,Solubility in H2O,74 µg/mL
same,"effect in Ehrlich ascites-bearing mice, in words",Ehrlich ascites,effective
same,Cytotoxicity index (CI),"[4]; drug 1.0 μg/ml, L-ascorbate 100 μg/ml",76.6%
same,Cytotoxicity index (CI),"[4]; drug 10 μg/ml, no L-ascorbate",87.9%
"COc1cc(O)c(SCC(=O)O)c(OC)c1O [DMQ-MA, 2,6-dimethoxyhydroquinone-3-mercaptoacetic acid]","cytotoxicity compared with DMQ, in words",human tumor cell lines,less cytotoxic
same,"cytotoxicity in combination with L-ascorbic acid or D-isoascorbic acid, in words",human tumor cell lines,greatly augmented; also recorded: act synergistically
same,"hydrophobicity, in words",[7],a certain degree of hydrophobicity
same,CI,[1]; [10],89%
same,CI,[1]; [11],0%
same,CI,[2]; [10],86%
same,CI,[2]; [11],2%
same,CI,[3]; [10],79%
same,CI,[3]; [11],3%
same,solubility relative to DMQ (times higher),Solubility in H2O,about 70 times
same,"water-solubility, in words",Solubility in H2O,a lot more water-soluble than DMQ; also recorded: significantly improved water-solubility in comparison with DMQ
same,solubility,Solubility in H2O,5000 µg/mL
same,Cytotoxicity index (CI),"[4]; drug 10 μg/ml, L-ascorbate 1.0 μg/ml (so in the source)",22.1%
same,CI,[4]; [10],86%
same,CI,[4]; [11],0%
same,"CI value compared with DMQ, in words",[4]; drug 10 μg/ml,significantly lower than DMQ
"COc1cc(O)c(SCCC(=O)O)c(OC)c1O [DMQ-MP, 2,6-dimethoxyhydroquinone-3-mercaptopropionic acid]",cytotoxicity at 100 µg/mL,human tumor cell lines; four human tumor cell lines,< 25%
same,"CI values, summary","human tumor cell lines; DMQ-MP 1 μg/ml in combination with D-isoascorbic acid 100 μg/ml, four human tumor cell lines, 5760 min",77-88%
same,"cytotoxicity compared with DMQ, in words",human tumor cell lines,less cytotoxic
same,"cytotoxicity in combination with L-ascorbic acid or D-isoascorbic acid, in words",human tumor cell lines,greatly augmented; also recorded: act synergistically
same,"hydrophobicity, in words",[7],a certain degree of hydrophobicity
same,CI,[1]; [12],79%
same,CI,[1]; [13],10%
same,CI,[2]; [12],77%
same,CI,[2]; [13],13%
same,CI,[3]; [12],88%
same,CI,[3]; [13],11%
same,solubility relative to DMQ (times higher),Solubility in H2O,about 70 times
same,"water-solubility, in words",Solubility in H2O,a lot more water-soluble than DMQ; also recorded: significantly improved water-solubility in comparison with DMQ
same,solubility,Solubility in H2O,5330 µg/mL
same,Cytotoxicity index (CI),"[4]; drug 10 μg/ml, no L-ascorbate",43.5%
same,CI,[4]; [12],78%
same,CI,[4]; [13],17%
same,"CI value compared with DMQ, in words",[4]; drug 10 μg/ml,significantly lower than DMQ
"O=C1O[C@H]([C@@H](O)CO)C(O)=C1O [L-ascorbate, reference compound]",CI,[1]; [14],0.4%
same,CI,[2]; [14],9%
same,CI,[3]; [14],2%
same,CI,[4]; [14],5%
same,concentration of L-ascorbate in the human body,[8],≤ 1000 µM
